Where two headings read alike, the source gives them in different places.
What was measured:
[1] = tested on: HSF; assay: HSF activation, luciferase reporter controlled by the human hsp70 promoter in HeLa cell clone 13B; type: cell-based; settings: read-out: HSF AC200/μM
Method: (§1) HeLa cell clone 13B, stably transfected with a luciferase reporter plasmid controlled by the human hsp70 promoter, and HeLa κB-transformed cells, stably transfected with a luciferase reporter plasmid controlled by a synthetic NF-κB-STM construct, were maintained in DMEM medium supplemented with 10% FBS, L-glutamine (2 mM) and G418 (250 μg/ml) at 37° C. in a 5% CO2 humidified atmosphere.
(§2) Cells were seeded at a density of 4×10^4 cells/well in 96-well plates. After 18–20 h, the medium was removed and cells were treated for 8 h with the test compounds (100 μl) at the appropriate dilutions in serum-free medium. For the NF-κB-dependent reporter gene assay, cells were stimulated with TPA (25 ng/ml) 2 h after exposure to the compounds.
(§3) After incubation, the medium was removed and cells were lysed in 10 μl of lysis buffer. The luciferase activity was determined by adding 100 μl of substrate and measuring the release of light using a Victor 1420 microplate reader (Wallac, Finland).
(§4) The AC200/μM for HSF is the concentration at which the tested compound doubled the HSF activity in this assay. The IC50/μM for NF-κB is the concentration at which the tested compound halved the NF-κB activity in this assay. […] The LC50/μM is the concentration at which the tested compound killed half the cells in each assay. […] (n.d. means not done)

[2] = tested on: NF-κB; assay: NF-κB-dependent luciferase reporter gene assay in HeLa κB-transformed cells stimulated with TPA; type: cell-based, human
Method: as §1, §2, §3
The fragment Kpn I-BamH I from the pGL3 basic vector containing the luciferase gene (PROMEGA) was inserted in the pcDNA3 vector (INVITROGEN) digested with Bgl II-KpnI. (This digestion removes the CMV-promoter from pcDNA3.) The resulting new vector was digested with Kpn I-Hind III and a promoter containing a ‘5×NF-κB binding sites-TATA box’ sequence was inserted upstream of the luciferase gene. This vector has been named STM.
To obtain stable HeLa cell lines expressing the luciferase gene under the control of NF-κB, HeLa cells were transfected (using lipofectamine plus GIBCO) with the STM-Pvu I linearized vector, and selected for 20 days with G418 (800 μg/ml). After selection, the resistant HeLa cell pool was controlled (in quadruplicate samples) for luciferase activity after stimulation with TNFα, IL-1 and TPA.
as §4

[3] = in vitro
Method: (§5) This assay was carried out on HeLa cells using a technique analogous to that described below in Example 36(b) for Monkey Kidney 37RC cells.
as §4
(§6) Cell viability was determined using the Neutral Red assay. 37RC cells were seeded at density of 6×10^4 cells/well in 24-well plates and incubated for 24 h. Confluent 37RC monolayers were treated with the test compounds at different dilutions for 24 h at 37° C. After incubation, the medium was removed and the cells were incubated with RPMI medium containing 40 μg/ml Neutral Red dye (500 μl/well). After 2 h at 37° C., the monolayers were washed with phosphate-buffered saline (PBS) and then with a solution containing 1% CaCl2 and 0.5% formaldehyde. After washing, a solution containing 1% acetic acid/50% ethanol was added to the monolayers (250 μl/well). After 10 min at room temperature, the absorbance was determined with a microplate reader (Victor 1420, Wallac) at 540 nm.

[4] = tested on: HeLa cells; assay: in vitro; type: cell-based; settings: human, 8 h
Method: HeLa cells were plated in 96-well microtiter plates in 100 μl culture medium (4×10^4/well). After 20 hours, the cells were exposed to the test compounds at different dilutions and incubated for the next 8 h at 37° C. in a 5% CO2 humidified atmosphere. After 6 h incubation, the Alamar Blue was added in an amount equal to 10% of the culture volume (10 μl). Two hours after the addition of the Alamar Blue, the fluorescence was measured using a Victor 1420 microplate reader.

[5] = tested on: Sendai virus; assay: Replication of Sendai virus in 37RC cells, virus yield by haemagglutinin titration; type: cell-based; settings: Respirovirus muris, read-out: ID50/μM
Method: Monkey kidney 37RC cells were grown at 37° C. in RPMI medium supplemented with 5% foetal bovine serum (FBS), L-glutarine (2 mM) and antibiotics. Sendai virus was grown in the allantoic cavity of 10-day-old embryonated eggs. Viral titre was expressed in haemagglutinating units (HAU) per ml; haemagglutinin titration was done according to standard procedures, as described in C. Amici et al. (J. Virol. 68: 6890–6899, 1994). […] Confluent 37RC monolayers were infected with Sendai Virus (5 HAU/ml) for 1 h at 37° C. After 1 hour incubation, viral inoculum was removed and cells were treated with the test compounds at different concentrations. Virus yields were determined 24 h post infection by haemagglutinin titration. Mock-infected cells were treated identically and processed for cytotoxicity assay (Neutral Red assay) at the same time (see below). The results were expressed as HAU/ml (each point represents the mean of duplicate samples).

[6] = tested on: Monkey kidney 37RC cells; type: cell-based; settings: concentration 100% toxic to uninfected 37RC cells, visually by microscopy
[7] = in vitro; type: cell-based; settings: monkey, 50% lethal dose/concentration, neutral red assay, 37RC cells, read-out: LC50/μM
Method: Cell viability was determined using the Neutral Red assay.

[8] = tested on: HeLa cells; assay: in vitro; settings: read-out: Toxicity Neutral Red LC50/μM; HeLa cells; concentration that killed half the cells
Method: as §5, §4, §6

[9] = Homo sapiens, concentration at which the compound doubled HSF activity, HeLa clone 13B, 8 h treatment
[10] = Homo sapiens, concentration that halved NF-κB activity, HeLa reporter cells, TPA 25 ng/ml, 8 h treatment
[11] = 50% inhibitory dose/concentration at 24 hours, Sendai virus in 37RC cells

Molecule | EC (2-fold HSF activity) [1, 9] [µM] | IC50 [2, 10] [µM] | CC50 [4] [µM] | IC50 [5, 11] [µM] | TD100/μM [6] [µM] | further results
O=C1C=CC(NC(=O)CCl)C1 (stereo not shown) [CTC-304, 2-Chloro-N-(4-oxo-cyclopent-2-enyl)-acetamide] | < 6.2 | < 6.2 |  |  |  | CC50 at 24 h ([3]; human): 79 µM
CC(C)/C=C1/C(=O)C=C[C@H]1NC(=O)OC(C)(C)C [CTC-195, (2R)-(5-iso-Butylidene-4-oxocyclopent-2-enyl)-carbamic acid tert-butyl ester] | 5 | 6.6 | > 800 | 0.4 | 10 | CC50 at 24 h [7]: 4 µM
O=C1C=CC(Nc2ccccc2)C1 (stereo not shown) [CTC-252, 4-Phenylamino-cyclopent-2-one] | 27 | 57 | > 800 |  |  | 
CC(C)(C)OC(=O)NC1C=CC(=O)/C1=C/c1ccc(Cl)cc1 (stereo not shown) [CTC-247, [(E)-5-(4-Chloro-benzylidene)-4-oxo-cyclopent-2-enyl]-carbamic acid tert-butyl ester] | 2 | 9 | > 800 | 0.6 | 10 | CC50 at 24 h ([3]; human): 72 µM; CC50 at 24 h [7]: 3.4 µM
CC(C)/C=C1/C(=O)C=CC1C (stereo not shown) [CTC-154] | 13 | 14 | > 800 |  |  | 
CCOC(=O)N(C(=O)OC(C)(C)C)C1C=CC(=O)C1 (stereo not shown) [CTC-267, N-tert-Butoxycarbonyl-(4-Oxocyclopent-2-enyl)-carbamic acid ethyl ester] | 18 | 35 |  |  |  | CC50 at 24 h ([3]; human): 233 µM
CCCCC1C=CC(=O)/C1=C/C1CC1 (stereo not shown) [CTC-177] | 8 | 14 | 239 |  |  | 
COC(=O)[C@H](CS[C@@H]1CC(=O)C[C@H]1NC(=O)Oc1ccccc1)NC(=O)OC(C)(C)C [CTM-236, (R)-2-tert-Butoxycarbonylamino-3-((1R,2R)-4-oxo-2-phenoxy-carbonyl-amino-cyclopentyl-sulfanyl)-propionic acid methyl ester] |  |  |  |  |  | EC (2-fold HSF activity) ([1]; concentration at which the compound doubled HSF activity, HeLa clone 13B, 8 h treatment): 13 µM; IC50 ([2]; concentration that halved NF-κB activity, HeLa reporter cells, TPA 25 ng/ml, 8 h treatment): 10 µM; CC50 [8]: 76 µM
CC(C)(C)OC(=O)N[C@@H](CS[C@@H]1CC(=O)/C(=C/c2ccccc2)[C@H]1NC(=O)OC(C)(C)C)C(=O)O [CTM-228, (2R)-3-((1R,2R)-(E)-3-Benzylidene-2-tert-butoxycarbonylamino-4-oxocyclopentylsulfanyl)-2-tert-butoxycarbonylaminopropionic acid] | < 6.2 | < 6.2 |  |  |  | CC50 at 24 h ([3]; human): 25 µM
CC1C=CC(=O)/C1=C/c1ccccc1 (stereo not shown) [CTC-150, 4-Methyl-5-[1-phenyl-meth-(E)-ylidene]-cyclopent-2-enone] | 3 | 7 | 314 | 0.9 | 50 | 
CC(C)/C=C1/C(=O)C=CC1NC(=O)OC(C)(C)C (stereo not shown) [CTC-121, (5-iso-Butylidene-4-oxocyclopent-2-enyl)-carbamic acid tert-butyl ester] | 2.8 | 4.7 | > 800 | 1 | 50 | CC50 at 24 h [7]: 4 µM
CC(C)/C=C1/C(=O)C=C[C@@H]1NC(=O)OC(C)(C)C [CTC-199, (2S)-(5-iso-Butylidene-4-oxocyclopent-2-enyl)-carbamic acid tert-butyl ester] | 1.8 | 5 | > 800 | 1 | 50 | CC50 at 24 h [7]: 4 µM
CCCCCC/C=C1/C(=O)C=CC1C (stereo not shown) [CTC-162] | < 6.2 | < 6.2 | 234 |  |  | 
O=C1C=CC(NC(=O)Oc2ccccc2)C1 (stereo not shown) [CTC-260, (4-Oxocyclopent-2-enyl)-carbamic acid phenyl ester] | 10 | 9 |  |  |  | CC50 at 24 h [3]: 74 µM
[(1R,2S)-2-(Naphthalen-2-ylsulfanyl)-4-oxocyclopentyl]-carbamic acid methyl ester; compound with benzene [CTM-237] |  |  |  |  |  | EC (2-fold HSF activity) [1]: 28 µM; IC50 [2]: 9 µM; CC50 [8]: 183 µM
CC(C)(C)OC(=O)NC1C=CC(=O)/C1=C/c1ccccc1 (stereo not shown) [CTC-248, ((E)-5-Benzylidene-4-oxo-cyclopent-2-enyl)-carbamic acid tert-butyl ester] | 1.8 | 4 | > 800 |  | 10 | CC50 at 24 h ([3]; human): 33 µM; IC50 ([5]; 24 h): 0.6 µM; CC50 at 24 h [7]: 33 µM
COC(=O)[C@H](CSC1CC(=O)/C(=C/C(C)C)C1C)NC(=O)OC(C)(C)C (stereo partly shown) [CTM-126] | 18 | 21 | > 800 |  |  | 
CC(C)(C)OC(=O)NC1C=CC(=O)C1 (stereo not shown) [CTC-132, (4-Oxocyclopent-2-enyl)-carbamic acid tert-butyl ester] | 51 | 52 | > 800 | 20 | 100 | 
O=C1C=CC(NC(=O)c2ccccc2)C1 (stereo not shown) [CTC-171, N-(4-Oxocyclopent-2-enyl)-benzamide] | 51 | 38 | > 800 | 20 | 100 | CC50 at 24 h [7]: 59 µM
Cc1cc(C)c(/C=C2/C(=O)C=C[C@@H]2NC(=O)OC(C)(C)C)c(C)c1 [CTC-285, (1S)-[4-Oxo-(E)-5-(2,4,6-trimethyl-benzylidene)-cyclopent-2-enyl]-carbamic acid tert-butyl ester] | < 6.2 | 10 |  |  |  | CC50 at 24 h ([3]; human): 25 µM
CCOC(=O)NC1C=CC(=O)C1 (stereo not shown) [CTC-271, (4-Oxocyclopent-2-enyl)-carbamic acid ethyl ester] | 49 | 39 |  |  |  | CC50 at 24 h ([3]; human): 104 µM
CCCCC/C=C1/C(=O)C=CC1C (stereo not shown) [CTC-164] | > 100 | 40 | > 800 |  |  | 
CCCCC1C=CC(=O)/C1=C/CC(C)C (stereo not shown) [CTC-122] | 13 | 12 | 227 | 0.3 | 50 | 
CCCCC1C=CC(=O)/C1=C/C(C)C (stereo not shown) [CTC-145] | 13 | 38 | 506 | 0.3 | 10 | 

Reference: patent US7183440B2, “Pharmaceutically useful compounds” (priority 2005, dated 2007)
